The subject of data set [1] is participants with idiopathic pulmonary fibrosis (IPF). Particulars: FIG. 26, histograms from left to right; from USPI or literature; cited from earlier work.
Data set [2] has as its system lung Col1a1 expression. Kind of data set: Precision cut lung slices, chronic bleomycin exposure, versus and with nintedanib and pirfenidone. It counts as cell-based, mice (C57BL/6). Particulars: chronic bleomycin PCLS, 7 days culture, single agents. The method, then:
Mice (C57BL/6) were administered 3 U/kg of bleomycin (Teva Pharmaceuticals; North Wales, PA) on Day 0 and 1 U/kg of bleomycin on days 14, 28, 42 and 56 via oropharyngeal aspiration while under anesthesia. At day 70, 14 days following the final bleomycin insult, precision cut lung slices were obtained. […] The lobes were then subjected to precision slicing to obtain samples for culture using a microtome (Compresstome VF-300-OZ, Precisionary; Greenville, NC). Individual slices were distributed in a multiwell culture plate and cultured for 7 days under control (DMSO) and test compound conditions. The viability of the slices over the course of culturing was confirmed by WST-1 assay of mitochondrial activity. During the culture period, slices in the control group were treated with DMSO and slices in the test group were treated with a DMSO solution of one of: […]

The test system of data set [3] is explanted human lung tissue from patients with idiopathic pulmonary fibrosis. Nature of the data set: Fibrosis-related gene expression (nCounter Fibrosis Panel) in precision cut lung slices. In kind it is cell-based. From the text:
Briefly, tissue samples from patients with IPF were acquired at the time of lung transplantation. […] Treated slices were lysed in mRNA-compatible buffer for gene expression analysis. For this study, the lysate from n=6 slices per treatment per lung were pooled for analysis using the nCounter Fibrosis Panel (Nanostring) on the nCounter Max analyzer (Nanostring). This commercially available panel of 770 genes includes genes related to initial tissue damage response, chronic inflammation, proliferation of pro-fibrotic cells, and tissue modification leading to fibrotic disease. Technical quality control and normalization of raw Nanostring mRNA count data was performed using an R framework developed by Bhattacharya et al. (Bhattacharya A. et al., Brief Bioinform. 2021 May 20; 22(3):bbaa163; herein incorporated by reference in its entirety). The R packages limma (see URL www.bioconductor.org/packages/release/bioc/html/limma.html, which is incorporated herein by reference in its entirety) and voom (Law, C.

A further data set deals with COL1A1 expression. Kind of data set: Precision cut lung slices from human IPF explants, COL1A1 expression. It counts as cell-based. Particulars: human IPF PCLS; for expression of COL1A1: 7 days, treatment alone: nintedanib 75 nM, pirfenidone 50 μM. From the text: Explanted lung tissue was obtained from human IPF subjects and inflated with agarose as described in the preceding examples. Biopsy cores were obtained from the agarose-inflated lung tissue. The biopsy cores were subjected to precision slicing to obtain several hundred μm thick. Individual slices were distributed in a multiwell culture plate and cultured for […] under control (DMSO) and test compound conditions. The viability of the slices over the course of culturing was confirmed by WST-1 assay of mitochondrial activity.
PCLS from 5-7 idiopathic pulmonary fibrosis (IPF) lung tissue samples were cultured for seven days with one of: DMSO; Compound 5 at 200 nM; nintedanib at 75 nM; pirfenidone at 50 μM; a combination of Compound 5 at 200 nM and nintedanib at 75 nM; a combination of Compound 5 at 200 nM and pirfenidone at 50 μM; or an ALK5 inhibitor at 1 μM. […] FIG. 6D is a bar graph showing relative expression of COL1A1 in precision cut lung slices (PCLS) from idiopathic pulmonary fibrosis (IPF) lung tissue upon exposure to Compound 5, clinical standard of care compounds nintedanib (Nin) and pirfenidone (Pirf), and an ALK5 inhibitor, all versus DMSO control.
PCLS from a single IPF lung tissue sample were cultured for seven days with Compound 5 at concentrations of 200 pM, 2 nM, 60 nM, 200 nM, and 1 μM, along with 0.1% DMSO control and an ALK5 inhibitor at 1 μM. […] COL1A1 expression is also graphed for the PCLS in the presence of 0.1% DMSO control, and an ALK5 inhibitor at 1 μM.

Data set [4] concerns lung Col1a1 expression. Kind of data set: Precision cut lung slices, chronic bleomycin exposure, Col1a1 expression. It counts as cell-based, mice (C57BL/6). Conditions: chronic bleomycin PCLS, 7 days culture. The method, then:
Mice (C57BL/6) were administered 3 U/kg of bleomycin (Teva Pharmaceuticals; North Wales, PA) on Day 0 and 1 U/kg of bleomycin on days 14, 28, 42 and 56 via oropharyngeal aspiration while under anesthesia. At day 70, 14 days after the final bleomycin insult, precision cut lung slices were obtained. […] The lobes were then subjected to precision slicing to obtain samples for culture using a microtome (Compresstome VF-300-OZ, Precisionary; Greenville, NC). Individual slices were distributed in a multiwell culture plate and cultured for 7 days under control (DMSO) and test compound conditions. The viability of the slices over the course of culturing was confirmed by WST-1 assay of mitochondrial activity. […] Compound 5; and the small molecule ALK5 inhibitor. […] Compound 5 was run at approximate IC50 for inhibition of TGF-beta activation by αVβ6.

The subject of data set [5] is Type I Collagen gene Col1a1 expression. Kind of data set: Precision cut lung slices, acute bleomycin exposure, Col1a1 expression. Particulars: acute bleomycin PCLS, 3 days culture; integrin inhibitors at IC50 for TGF-beta activation, pan-αV and ALK5 inhibitors at 10× IC50. It counts as cell-based, mice (C57BL/6).
Description: Mice (C57BL/6) were administered 3 U/kg of bleomycin (Teva Pharmaceuticals; North Wales, PA) on day 0 via oropharyngeal aspiration while under anesthesia. On day 14, precision cut lung slices were obtained. Following euthanization, 2% low gelling temp agarose was injected into the mouse lungs via the trachea. […] The lobes were then subjected to precision slicing to obtain samples for culture using a microtome (Compresstome VF-300-OZ, Precisionary; Greenville, NC). Individual slices were distributed in a multiwell culture plate and cultured for 3 days under control (DMSO) and test compound conditions. The viability of the slices over the course of culturing was confirmed by WST-1 assay of mitochondrial activity.
Data set [6] deals with recombinant human integrin αVβ6 (Homo sapiens, UniProt P06756+P18564). Kind of data set: Solid phase integrin αVβ6 binding assay. Particulars: TGFβ1 LAP, values presented in four ranges, read-out: αvβ6 Inhibition IC50 (nM)-range. The method, then:
Microplates were coated with recombinant human integrin αVβ6 (2 μg/mL) in PBS (100 μL/well 250 C, overnight). The coating solution was removed, washed with wash buffer (0.05% Tween 20; 0.5 mM MnCl2; in 1×TBS). The plate was blocked with 200 μL/well of Block Buffer (1% BSA; 5% sucrose; 0.5 mM MnCl2; in 1×TBS) at 370 C for 2 h. Dilutions of testing compounds and recombinant TGFβ1 LAP (0.67 μg/mL) in binding buffer (0.05% BSA; 2.5% sucrose; 0.5 mM MnCl2; in 1×TBS) were added. The plate was incubated for 2 hours at 250 C, washed, and incubated for 1 hour with Biotin-Anti-hLAP. Bound antibody was detected by peroxidase-conjugated streptavidin. The IC50 values for testing compounds were calculated by a four-parameter logistic regression.
The compounds tested were compound samples prepared according to procedures described in the Synthetic Examples section, with the stereochemical purity as indicated in the Examples.
A third series of exemplary compounds was selected for testing in the solid phase integrin αVβ6 binding assay. The compounds tested were compound samples prepared according to procedures described in the Synthetic Examples section, with the stereochemical purity as indicated in the Examples. […] Bound antibody was detected by peroxidase-conjugated streptavidin. The IC50 values for testing compounds were calculated by a four-parameter logistic regression.

The mark [7] stands for this setting: single treatment, adj. p-value <0.05.

The structures appear in SMILES notation. Entries after “also recorded” stand apart in the source; their conditions may differ.

What is called IC50 is the concentration that gives 50% inhibition.

Chain of recombinant human integrin αVβ6 (P06756 31-992 limits assumed): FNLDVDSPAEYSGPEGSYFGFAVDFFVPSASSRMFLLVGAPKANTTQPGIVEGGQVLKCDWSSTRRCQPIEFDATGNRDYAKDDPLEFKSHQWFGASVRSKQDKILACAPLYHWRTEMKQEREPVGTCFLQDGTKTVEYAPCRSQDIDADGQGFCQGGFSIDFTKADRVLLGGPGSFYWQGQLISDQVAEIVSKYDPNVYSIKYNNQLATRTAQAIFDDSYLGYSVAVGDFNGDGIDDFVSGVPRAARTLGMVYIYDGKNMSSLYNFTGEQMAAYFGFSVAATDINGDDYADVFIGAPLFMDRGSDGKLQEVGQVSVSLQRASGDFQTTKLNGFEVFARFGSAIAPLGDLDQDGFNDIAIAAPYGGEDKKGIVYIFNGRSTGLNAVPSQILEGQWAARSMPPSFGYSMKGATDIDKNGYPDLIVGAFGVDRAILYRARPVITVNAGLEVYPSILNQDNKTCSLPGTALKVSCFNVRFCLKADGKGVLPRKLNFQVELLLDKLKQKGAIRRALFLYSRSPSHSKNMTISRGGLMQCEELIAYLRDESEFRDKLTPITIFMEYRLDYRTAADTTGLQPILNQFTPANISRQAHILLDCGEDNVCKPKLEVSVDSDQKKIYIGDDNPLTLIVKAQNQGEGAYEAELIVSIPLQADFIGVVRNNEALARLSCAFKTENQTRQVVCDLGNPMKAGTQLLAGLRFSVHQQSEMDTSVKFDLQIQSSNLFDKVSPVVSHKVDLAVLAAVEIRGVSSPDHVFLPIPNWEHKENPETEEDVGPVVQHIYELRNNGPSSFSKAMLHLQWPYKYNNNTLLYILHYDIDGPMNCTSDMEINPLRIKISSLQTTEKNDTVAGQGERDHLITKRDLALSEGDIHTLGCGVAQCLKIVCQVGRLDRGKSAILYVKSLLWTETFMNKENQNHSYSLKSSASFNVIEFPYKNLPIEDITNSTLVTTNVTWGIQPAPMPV
Chain of recombinant human integrin αVβ6 (P18564 22-707 limits assumed): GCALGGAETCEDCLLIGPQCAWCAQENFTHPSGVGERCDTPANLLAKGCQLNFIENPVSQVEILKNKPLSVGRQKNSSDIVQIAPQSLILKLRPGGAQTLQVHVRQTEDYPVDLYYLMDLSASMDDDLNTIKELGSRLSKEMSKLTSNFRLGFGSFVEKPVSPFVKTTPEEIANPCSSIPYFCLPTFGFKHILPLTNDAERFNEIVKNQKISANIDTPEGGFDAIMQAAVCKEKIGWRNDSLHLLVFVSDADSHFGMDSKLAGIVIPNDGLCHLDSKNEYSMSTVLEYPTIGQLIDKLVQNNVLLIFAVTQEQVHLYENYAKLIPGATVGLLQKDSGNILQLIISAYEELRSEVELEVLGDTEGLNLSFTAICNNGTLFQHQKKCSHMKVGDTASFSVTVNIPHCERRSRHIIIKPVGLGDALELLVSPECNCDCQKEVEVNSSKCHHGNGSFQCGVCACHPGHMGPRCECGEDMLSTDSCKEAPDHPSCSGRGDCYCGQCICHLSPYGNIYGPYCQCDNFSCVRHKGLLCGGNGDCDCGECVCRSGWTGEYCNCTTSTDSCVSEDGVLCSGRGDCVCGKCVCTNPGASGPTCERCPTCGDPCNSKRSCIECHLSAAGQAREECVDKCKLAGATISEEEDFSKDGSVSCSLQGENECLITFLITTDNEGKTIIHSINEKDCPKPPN

Take `[O-][S+]1CCc2nc(N3CCC(c4ncc(Cl)cn4)CC3)nc(NC3(CO)CCC3)c21` (stereo not shown) [BI 1015550]: the “% Incidence of Diarrhea in IPF Clinical Trials” value in data set [1] was 17%.
Regarding `Cc1ccc(=O)n(-c2ccccc2)c1` [pirfenidone, 5-methyl-1phenyl-2-1(H)-pyridone, reference compound], in the data set with lung Col1a1 expression [2], the “lung Col1a1 expression vs DMSO vehicle control slices” value is “slight increase”. Also, in data set [3] (FIG. 24 Venn region F: altered by Compound 5 or pirfenidone alone, but not by Compound 5 in combination with pirfenidone), the “Genes Down-regulated with Compound 5 and Pirfenidone Alone or in Combination, region F” value is reported as “CXCR4; also recorded: PECAM1”. For the same molecule, the “Genes Up-regulated with Compound 5 and Pirfenidone Alone or in Combination, region G” value in data set [3] (FIG. 24 Venn region G: only altered by pirfenidone in the absence of Compound 5) was “COL7A1 and MMP7 and PTGS2”. The “logFC KNG1” value in data set [3] (setting [7]) is on record as −1.1. Moreover, the “expression of COL1A1” value in the data set on COL1A1 expression is listed as “did not significantly reduce”.
As for `Cc1cccc(-c2n[nH]cc2-c2ccc(F)c(-c3cnn(CCO)c3)c2)n1` [small molecule ALK5 inhibitor, 4-[2-Fluoro-5-[3-(6-methyl-2-pyridinyl)-1H-pyrazol-4-yl]phenyl]-1H-pyrazole-1-ethanol, reference compound], the “lung Col1a1 expression vs DMSO vehicle control slices” value with lung Col1a1 expression [2] is recorded as “substantial, statistically significant (p<0.0001 vs vehicle) decrease”. For the same molecule, the “lung Col1a1 expression, normalized to DMSO control slices” value with lung Col1a1 expression [4] is reported as “greatest decrease”; with COL1A1 expression (3 days, 3G9 ≥400 ng/mL, Compound 5 179 nM, ALK5 inhibitor 1 μM), “decrease in lung Col1a1 expression”. Further, the “Type I Collagen gene Col1a1 expression, normalized to DMSO control slices” value in data set [5] was “greatest decrease”.
For `COC(=O)c1ccc2c(c1)NC(=O)/C2=C(\Nc1ccc(N(C)C(=O)CN2CCN(C)CC2)cc1)c1ccccc1` [nintedanib, 3-Z-[1-(4-(N-((4-methyl-piperazin-1-yl)-methylcarbonyl)-N-methyl-amino)-anilino)-1-phenyl-methylene]-6-methoxycarbonyl-2-indolinone, reference compound], the “lung Col1a1 expression vs DMSO vehicle control slices” value with lung Col1a1 expression [2] was “slight increase”. Besides, the “Genes up-regulated, Venn region G (FIG. 24)” value in data set [3] (IPF precision cut lung slices, 7 days, only altered by nintedanib in the absence of Compound 5) is “ACTA2 and CCL19 and COL6A5 and ELN and IGF1 and PYGM”. Further, the “logFC CYP2J2” value in data set [3] (setting [7]) is 1.025. Further, the “expression of COL1A1” value in the data set on COL1A1 expression is listed as “did not significantly reduce”.
In the case of `CC(C)(C)c1cc(Br)cc([C@H](CC(=O)O)NC(=O)CNC(=O)c2cc(O)cc(NC3=NCC(O)CN3)c2)c1` (stereo partly drawn) [second pan-αV small molecule inhibitor, (3S)—N-[3-hydroxy-5-[(1,4,5,6-tetrahydro-5-hydroxy-2-pyrimidinyl)amino]benzoyl]glycyl-3-[3-bromo-5-(1,1-dimethylethyl)phenyl]-β-alanine], the “Type I Collagen gene Col1a1 expression, normalized to DMSO control slices” value in data set [5] is on record as “decreased Type I Collagen gene Col1a1 expression comparably”.
With `COCCN(CCCCc1ccc2c(n1)NCCC2)CCC(Nc1ncnc2cnccc12)C(=O)O` (stereo not shown) [Compound 17, 4-((2-methoxyethyl)(4-(5,6,7,8-tetrahydro-1,8-naphthyridin-2-yl)butyl)amino)-2-(pyrido[3,4-d]pyrimidin-4-ylamino)butanoic acid], the IC50 in data set [6] was below 50 nM.

The values are drawn from patent US20240122930A1, “INTEGRIN INHIBITORS AND USES THEREOF IN COMBINATION WITH OTHER AGENTS” (Pliant Therapeutics, Inc., priority 2022, published 2024).
